target: T1, hBPGM (Homo sapiens, UniProt P07738); assay: BPGM synthase assay; type: biochemical; details: Table 6; read-out: huBPGM: synthase Enzyme IC50
T1 sequence (P07738 1-259): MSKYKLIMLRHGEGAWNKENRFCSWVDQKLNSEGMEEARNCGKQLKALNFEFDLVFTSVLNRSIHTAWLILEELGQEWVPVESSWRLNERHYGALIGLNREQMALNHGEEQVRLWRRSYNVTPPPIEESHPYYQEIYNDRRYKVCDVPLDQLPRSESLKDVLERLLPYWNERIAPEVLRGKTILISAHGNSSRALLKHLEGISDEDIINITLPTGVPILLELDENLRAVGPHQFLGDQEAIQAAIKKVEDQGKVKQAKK
Protocol: The following materials were used in this assay: deionized water; Bisphosphoglycerate mutase (BPGM; Standard Buffer: 50 mM Tris, 0.01% Tween 20, pH 7.4); BPGM Reaction Buffer (50 mM Tris, 0.01% Tween 20, 3.23 mM KH2PO4, pH 7.4); dithiothreitol (DTT; Stock solution: 100 mM in Standard Buffer); 384-Well Black Assay Plate (Corning, P/N 3575); DMSO; BPGM Stock Solution (500 nM in BPGM Standard Buffer); Glyceraldehyde 3-phosphate dehydrogenase (GAPDH; Stock Solution: 40 U/mL in 20 mM Tris-HCL Buffer with 20% Glycerol, 1 mM EDTA, 1 mM DTT); Glyceraldehyde 3-phosphate (GAP; Stock Solution: 20 mM in BPGM Standard Buffer); 3-PG Stock Solution (500 μM in BPGM Standard Buffer); Nicotinamide adenine dinucleotide (NAD; Stock Solution: 50 mM in BPGM Standard Buffer); Koningic Acid (1 mM Stock in DMSO); Resazurin Stock Solution (10 mM in DMSO); Diaphorase Stock Solution (40 U/mL in BPGM Standard Buffer); DTT Reaction Buffer (1 mM DTT in BPGM Reaction Buffer); Enzyme Solution (5 nM BPGM, 0.4 U/mL GAPDH in DTT Reaction Buffer); GAPDH Solution (0.4 U/mL GAPDH in DTT Reaction Buffer); Substrate Solution (2 mM NAD, 20 μM 3PG, 800 μM GAP in DTT Reaction Buffer); and Resazurin Solution (5 U/mL Diaphorase, 500 μM Resazurin in BPGM Standard Buffer).
To the assay plate was added Enzyme Solution (20 uL) to columns 2-22 and 24 of the assay plate. To columns 1 and 23 was added GAPDH Solution (20 uL). A separate compound plate was prepared at the desired concentrations and all wells were normalized with 5% DMSO. The compound plate was incubated for 30 minutes at RT. Next, the substrate solution (20 μL) was dispensed to all reaction wells and the plate was incubated for 60 minutes at RT. Koningic acid (1 μL) was added and the plate was incubated for 10 minutes at RT. During this time period, the NADH fluorescence was read at ex: 360/em: 460. Next, Resazurin Solution (10 μL) was added to all reaction wells and the plate was incubated for 30 minutes at RT. The resorufin fluorescence was then read at ex:544/em:590.

Structure (SMILES) | IC50 [nM]
Cc1nc(C)c(-c2cccc(-c3cc(F)c4nn[nH]c4c3F)n2)s1 [Example 90] | 340
Cc1nc(CN/C(=N/C#N)N(C)C)sc1-c1cccc(-c2cc(F)c(O)c(F)c2F)n1 [Example 27] | 1500
Cc1nnc(-c2cccc(-c3cc(F)c4nn[nH]c4c3F)n2)s1 [Example 232] | 2200
Cc1nc(CNC(=O)N2CCC(O)C2)sc1-c1cccc(-c2cc(F)c3nn[nH]c3c2F)n1 (stereo not drawn) [Example 61] | 220
Cc1nc(CNC(=O)C(C)(C)C)sc1-c1csc(-c2cc(F)c(O)c(F)c2F)n1 [Example 111] | 570
Cc1nc(COC(=O)N(C)C)sc1-c1csc(-c2cc(F)c3[nH]nnc3c2)n1 [Example 109] | 160
Cc1nc(COc2ccccn2)sc1-c1csc(-c2cc(F)c(OP(=O)(O)O)c(F)c2F)n1 [Example 81] | 3000
Cc1nc(COc2cccnn2)sc1-c1csc(-c2cc(F)c3[nH]nnc3c2F)n1 [Example 38] | 36
Cc1nc(NC(=O)OC(C)(C)C)sc1-c1cccc(-c2cc(F)c3[nH]nnc3c2F)n1 [Example 30] | 200
Cc1nc(CNC(=O)c2cnn(C)c2)sc1-c1csc(-c2cc(F)c(O)c(F)c2F)n1 [Example 113] | 530
CNCc1nc(C)c(-c2cccc(-c3cc(F)c4nn[nH]c4c3F)n2)s1 [Example 63] | 1400
Cc1nc(COc2ccccn2)sc1-c1csc(-c2cc(F)c3[nH]nnc3c2F)n1 [Example 82] | 3600
Cc1nc(C)c(-c2csc(-c3cc(O)c(NS(=O)(=O)c4ccccc4)cc3F)n2)s1 [Example 180] | > 25000
COC(=O)NCc1nc(C)c(-c2csc(-c3cnc(O)nc3)n2)s1 [Example 193] | 23000
Cc1nc(-c2cccc(-c3sc(COc4ncccn4)nc3C)n2)nnc1O [Example 230] | > 25000
Cc1nc(COc2ncccn2)sc1-c1cnn(-c2cc(F)c(O)c(F)c2F)c1 [Example 233] | 3900
Cc1nc(COc2ncccn2)sc1-c1csc(-c2cc(F)c3[nH]nnc3c2F)n1 [Example 66] | 16
Cc1nc(COc2ncccn2)sc1-c1csc(-c2cc(F)c(O)c(F)c2F)n1 [Example 70] | 200
Cc1nc(COc2ncccn2)sc1-c1cccc(-c2ccc3c(c2)C(=O)NC3=O)n1 [Example 132] | 8100
Cc1nc(COCC(C)(C)O)sc1-c1cccc(-c2cc(F)c(O)c(F)c2F)n1 [Example 218] | 410
Cc1nc(CNC(=O)N(C)C)sc1-c1csc(-c2cc(F)c3[nH]nnc3c2)n1 [Example 107] | 3200
Cc1nc(COC(C)C)sc1-c1cccc(-c2cc(F)c3nn[nH]c3c2F)n1 [Example 236] | 110

Structure (SMILES) | IC50 [nM]
Cc1nc(COC(=O)N2CCC(O)C2)sc1-c1cccc(-c2cc(F)c3nn[nH]c3c2F)c1 (stereo not drawn) [Example 62] | 350
Cc1nc(COc2cccnn2)sc1-c1nc(-c2cc(F)c(O)c(F)c2F)cs1 [Example 77] | 1300
Cc1nc(CO)sc1-c1csc(-c2cc(F)c(O)c(F)c2F)n1 [Example 116] | 6500
COC(=O)NCc1nc(C)c(-c2csc(-c3ccc(C4SC(=O)NC4=O)cc3)n2)s1 (stereo not drawn) [Example 204] | > 25000
Cc1nc(COc2ncccn2)sc1-c1cccc(-c2ccc3oc(=O)[nH]c3c2)n1 [Example 212] | 2600
Cc1nc(COCC(=O)N2CCC(O)C2)sc1-c1csc(-c2cc(F)c3[nH]nnc3c2F)n1 (stereo not drawn) [Example 78] | 1500
CC(=O)NCc1nc(C)c(-c2cccc(-c3cc(F)c4nn[nH]c4c3F)n2)s1 [Example 54] | 91
Cc1nc(COCC(C)(C)O)sc1-c1nc(-c2cc(F)c3nn[nH]c3c2F)cs1 [Example 224] | 30
Cc1nc(CNCC(=O)N(C)C)sc1-c1cccc(-c2cc(F)c3nn[nH]c3c2F)n1 [Example 53] | 890
Cc1nc(CO)sc1-c1cccc(-c2cc(F)c3nn[nH]c3c2F)n1 [Example 91] | 640
Cc1nc(C)c(-c2ccn(-c3cc(F)c4[nH]nnc4c3F)n2)s1 [Example 42] | 4100
Cc1nc(COc2ncccn2)sc1-c1ccnc(-c2cc(F)c(O)c(C#N)c2)c1 [Example 58] | 1900
Cc1nc(COC(=O)N(C)C)sc1-c1ccn(-c2cc(F)c3[nH]nnc3c2F)n1 [Example 46] | 130
COC(=O)NCc1nc(C)c(-c2csc(-c3cc(O)c(NS(C)(=O)=O)cc3F)n2)s1 [Example 183] | > 25000
COC(=O)NCc1nc(C)c(-c2csc(-c3cc(O)c(-c4nnn[nH]4)cc3F)c2)s1 [Example 184] | 250
Cc1nc(COCC(=O)N2CCNCC2)sc1-c1csc(-c2cc(F)c(O)c(F)c2F)n1 [Example 115] | 4400
Cc1nc(CNCC(C)(C)C)sc1-c1cccc(-c2cc(F)c3nn[nH]c3c2F)n1 [Example 56] | 260
Cc1nc(COc2ncccn2)sc1-c1cccc(-c2nnn[nH]2)n1 [Example 73] | > 25000
Cc1nc(COCC(=O)N2CCC(O)C2)sc1-c1cccc(-c2cc(F)c3nn[nH]c3c2F)n1 (stereo not drawn) [Example 76] | 1100
Cc1nc(COc2ncccn2)sc1-c1csc(-c2cc(F)c(C#N)c(O)c2F)n1 [Example 33] | 250
COC(=O)NCc1nc(C)c(-c2csc(-c3cc(O)c(S(N)(=O)=O)cc3F)n2)s1 [Example 202] | > 25000
Cc1nc(CN(C)CC(C)(C)O)sc1-c1cccc(-c2cc(F)c3nn[nH]c3c2F)n1 [Example 225] | 210

Structure (SMILES) | IC50 [nM]
COC(=O)NCc1nc(C)c(-c2csc(-c3cc(F)c4[nH]nnc4c3F)n2)s1 [Example 67] | 50
Cc1nc(COc2ncccn2)sc1-c1cccc(-c2ccc(-n3cn[nH]c3=O)cc2)n1 [Example 162] | > 25000
Cc1nc(COc2ncccn2)sc1-c1cccc(-c2ccc3[nH]c(=O)oc3c2)n1 [Example 117] | > 25000
Cc1nc(CNc2ncccn2)sc1-c1csc(-c2cc(F)c3[nH]nnc3c2F)n1 [Example 51] | 280
Cc1nc(C)c(-c2csc(-c3cc(F)c4[nH]nnc4c3F)n2)s1 [Example 86] | 140
Cc1nc(COc2ncccn2)sc1-c1cccc(-c2cc(F)c(O)c(F)c2C)n1 [Example 133] | 4400
Cc1nc(COC(=O)N2CCC(N(C)C)C2)sc1-c1cccc(-c2cc(F)c3nn[nH]c3c2F)n1 (stereo not drawn) [Example 32] | 76
Cc1nc(CNC(=O)C(C)(C)C)sc1-c1ccnc(-c2cc(F)c3nn[nH]c3c2F)n1 [Example 223] | 840
Cc1nc(COCC2(O)CC2)sc1-c1cccc(-c2cc(F)c3nn[nH]c3c2F)n1 [Example 238] | 49
Cc1nc(COc2ncccn2)sc1-c1cccc(-c2ccc3[nH]c(=O)[nH]c3c2)n1 [Example 128] | 6700
Cc1nc(CNC(=O)c2cccnn2)sc1-c1nc(-c2cc(F)c3nn[nH]c3c2F)cs1 [Example 43] | 14
COCc1nc(C)c(-c2cccc(-c3cc(F)c4nn[nH]c4c3F)n2)s1 [Example 34] | 250
Cc1nc(COc2ncccn2)sc1-c1cccc(-c2ccn3c(O)nnc3c2)n1 [Example 149] | 4500
Cc1nc(COCC(=O)C2CCNCC2)sc1-c1csc(-c2cc(F)c(O)c(F)c2F)n1 [Example 94] | > 25000
Cc1nc(CNC(=O)N2CCC(O)C2)sc1-c1csc(-c2cc(F)c(O)c(F)c2F)n1 (stereo not drawn) [Example 92] | 2300
Cc1nc(CN(C)C)sc1-c1cccc(-c2cc(F)c3nn[nH]c3c2F)n1 [Example 52] | 390
Cc1nc(COc2ncccn2)sc1-c1ccnc(-c2cc(O)c(C#N)c(F)c2)c1 [Example 24] | 250
Cc1nc(COc2cccnn2)sc1-c1cccc(-c2cc(F)c3nn[nH]c3c2F)n1 [Example 88] | 24
Cc1nc(CO)sc1-c1csc(-c2cc(F)c3[nH]nnc3c2F)n1 [Example 87] | 380
Cc1nc(Cc2ccccn2)sc1-c1cccc(-c2ccc(C(=O)NS(C)(=O)=O)cc2)c1 [Example 210] | 7500
Cc1nc(CNC(=O)N2CCC(O)C2)sc1-c1csc(-c2cc(F)c3[nH]nnc3c2F)n1 (stereo not drawn) [Example 80] | 2800
Cc1nc(COc2ncccn2)sc1-c1ccnc(-c2cc(F)c3nn[nH]c3c2F)n1 [Example 220] | 27

— patent US20230348454A1, “COMPOUNDS AS MODULATORS OF BIS-PHOSPHOGLYCERATE MUTASE FOR THE TREATMENT OF SICKLE CELL DISEASE” (Genzyme Corporation, priority 2020, published 2023)
